Several values for one entry are separate records, joined by “and”; a condition that tells them apart may be missing. Equal values may be shown once. Toxic doses and inconclusive results are not listed.
System: L1210 leukemia ip in BDF1 mice, survival T/C
Experiment: NCI In Vivo Anticancer Drug Screen. Data for tumor model L1210 Leukemia (intraperitoneal) in B6D2F1 (BDF1) mice
Settings: endpoint: mean survival time, higher = longer survival
Method in brief: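 In this screen, tumor-bearing mice given compound are compared to those given vehicle, and their survival values are reported as a treated-to-control quotient.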

[1] = dose: 100.0 mg/kg/injection, schedule: Q01DX009 (ip), vehicle: Klucel (hydroxypropylcellulose) (HPC)
[2] = dose: 200.0 mg/kg/injection, schedule: Q01DX009 (ip), vehicle: Klucel (hydroxypropylcellulose) (HPC)
[3] = dose: 400.0 mg/kg/injection, schedule: Q01DX009 (ip), vehicle: Klucel (hydroxypropylcellulose) (HPC)
[4] = dose: 100.0 mg/kg/injection, schedule: Q04DX003 (ip), vehicle: Klucel (hydroxypropylcellulose) (HPC)
[5] = dose: 200.0 mg/kg/injection, schedule: Q04DX003 (ip), vehicle: Klucel (hydroxypropylcellulose) (HPC)
[6] = dose: 400.0 mg/kg/injection, schedule: Q04DX003 (ip), vehicle: Klucel (hydroxypropylcellulose) (HPC)
[7] = dose: 100.0 mg/kg/injection, schedule: Q01DX001 (ip), vehicle: saline
[8] = dose: 200.0 mg/kg/injection, schedule: Q01DX001 (ip), vehicle: saline
[9] = dose: 400.0 mg/kg/injection, schedule: Q01DX001 (ip), vehicle: saline

Structure (SMILES): CCc1ccc(NC(=O)c2cc(OC)c(OC)c(OC)c2)cc1
- T/C [1]: 100 % of control
- T/C [2]: 97 % of control
- T/C [3]: 101 % of control

Structure (SMILES): COc1ccc(COC(=O)Nc2ccccc2C(F)(F)F)cc1
- T/C (dose: 100.0 mg/kg/injection, schedule: Q01DX009 (ip), vehicle: gum acacia): 89 % of control
- T/C (dose: 200.0 mg/kg/injection, schedule: Q01DX009 (ip), vehicle: gum acacia): 89 % of control

Structure (SMILES): N#CCCN1c2ccccc2Sc2ccc(Cl)cc21
- T/C [1]: 96 % of control
- T/C [2]: 101 % of control
- T/C [3]: 98 % of control

Structure (SMILES): NC(=O)c1cc(=O)n(C2OC(CO)C(O)C2O)c2nc(N)nc(N)c12 (centres undefined)
- T/C (dose: 12.5 mg/kg/injection, schedule: Q01DX005 (ip), vehicle: water): 93 % of control
- T/C (dose: 25.0 mg/kg/injection, schedule: Q01DX005 (ip), vehicle: water): 90 % of control
- T/C (dose: 50.0 mg/kg/injection, schedule: Q01DX005 (ip), vehicle: water): 90 % of control
- T/C (dose: 100.0 mg/kg/injection, schedule: Q01DX005 (ip), vehicle: water): 90 % of control
- T/C (dose: 200.0 mg/kg/injection, schedule: Q01DX005 (ip), vehicle: water): 93 % of control

Structure (SMILES): CC1=CC(=O)N(CO)C1=O
- T/C (dose: 25.0 mg/kg/injection, schedule: Q04DX003 (ip), vehicle: water): 94 % of control
- T/C (dose: 50.0 mg/kg/injection, schedule: Q04DX003 (ip), vehicle: water): 98 % of control

Structure (SMILES): CC1(C)C2(SCCS2)C(C)(C)C12SCCS2
- T/C [1]: 96 % of control
- T/C [2]: 95 % of control
- T/C [3]: 104 % of control

Structure (SMILES): CC1=CC2C(C3C=CC2(C)C(=O)C3(C)Cc2ccccc2)C(C)(Cc2ccccc2)C1=O (centres undefined)
- T/C (dose: 50.0 mg/kg/injection, schedule: Q01DX009 (ip), vehicle: Klucel (hydroxypropylcellulose) (HPC)): 94 % of control
- T/C (dose: 75.0 mg/kg/injection, schedule: Q01DX001 (ip), vehicle: Klucel (hydroxypropylcellulose) (HPC)): 100 % of control
- T/C [1]: 96 % of control
- T/C (dose: 150.0 mg/kg/injection, schedule: Q01DX001 (ip), vehicle: Klucel (hydroxypropylcellulose) (HPC)): 99 % of control
- T/C [2]: 93 % of control
- T/C (dose: 300.0 mg/kg/injection, schedule: Q01DX001 (ip), vehicle: Klucel (hydroxypropylcellulose) (HPC)): 96 % of control

Structure (SMILES): O=C(O)c1ccccc1N=CC(=O)c1c2ccccc2cc2ccccc12
- T/C (dose: 12.5 mg/kg/injection, schedule: Q04DX002 (ip), vehicle: Klucel (hydroxypropylcellulose) (HPC)): 105 % of control
- T/C (dose: 25.0 mg/kg/injection, schedule: Q04DX002 (ip), vehicle: Klucel (hydroxypropylcellulose) (HPC)): 105 % of control
- T/C (dose: 50.0 mg/kg/injection, schedule: Q04DX002 (ip), vehicle: Klucel (hydroxypropylcellulose) (HPC)): 102 % of control

Structure (SMILES): CC(C)(C)c1ccc(-c2nnc(-c3ccc(-c4ccccc4)cc3)o2)cc1
- T/C [4]: 95 % of control
- T/C [5]: 92 % of control
- T/C [6]: 90 % of control

Structure (SMILES): O=C(O)c1ccsc1Cc1ccsc1
- T/C (dose: 50.0 mg/kg/injection, schedule: Q01DX009 (ip), vehicle: saline with Tween-80): 89 % of control
- T/C (dose: 100.0 mg/kg/injection, schedule: Q01DX009 (ip), vehicle: saline with Tween-80): 96 % of control
- T/C (dose: 200.0 mg/kg/injection, schedule: Q01DX009 (ip), vehicle: saline with Tween-80): 86 % of control

Structure (SMILES): Clc1ccc(-c2cc(=[N+]3CC[N+](=c4cc(-c5ccc(Cl)cc5)ss4)CC3)ss2)cc1
- T/C (dose: 50.0 mg/kg/injection, schedule: Q01DX009 (ip), vehicle: water): 102 % of control
- T/C (dose: 100.0 mg/kg/injection, schedule: Q01DX009 (ip), vehicle: water): 89 % of control
- T/C (dose: 100.0 mg/kg/injection, schedule: Q04DX003 (ip), vehicle: water): 106 % of control
- T/C (dose: 200.0 mg/kg/injection, schedule: Q01DX009 (ip), vehicle: water): 105 % of control
- T/C (dose: 200.0 mg/kg/injection, schedule: Q04DX003 (ip), vehicle: water): 104 % of control
- T/C (dose: 400.0 mg/kg/injection, schedule: Q04DX003 (ip), vehicle: water): 107 % of control

Structure (SMILES): CCN(CC)CC(=O)NCC(CCN1CCCCC1)(Cc1cccc2ccccc12)C(C)C (centres undefined)
- T/C (dose: 12.5 mg/kg/injection, schedule: Q04DX003 (ip), vehicle: saline): 106 % of control
- T/C (dose: 25.0 mg/kg/injection, schedule: Q04DX003 (ip), vehicle: saline): 98 % of control
- T/C (dose: 50.0 mg/kg/injection, schedule: Q04DX003 (ip), vehicle: saline): 97 % of control

Structure (SMILES): O=C1C=Cc2ccccc2C1=O
- T/C (dose: 0.78 mg/kg/injection, schedule: Q01DX001 (ip), vehicle: Klucel (hydroxypropylcellulose) (HPC)): 103 % of control
- T/C (dose: 1.56 mg/kg/injection, schedule: Q01DX001 (ip), vehicle: Klucel (hydroxypropylcellulose) (HPC)): 95 % of control
- T/C (dose: 3.13 mg/kg/injection, schedule: Q01DX001 (ip), vehicle: Klucel (hydroxypropylcellulose) (HPC)): 88 % of control

Structure (SMILES): COc1cc(C[N+]23CC[N+](Cc4cc(OC)cc(OC)c4)(CC2)C3)cc(OC)c1
- T/C (dose: 5.0 mg/kg/injection, schedule: Q01DX001 (ip), vehicle: saline): 100 % of control
- T/C (dose: 10.0 mg/kg/injection, schedule: Q01DX001 (ip), vehicle: saline): 100 % of control
- T/C (dose: 20.0 mg/kg/injection, schedule: Q01DX001 (ip), vehicle: saline): 103 % of control
- T/C (dose: 40.0 mg/kg/injection, schedule: Q01DX001 (ip), vehicle: saline): 103 % of control
- T/C (dose: 80.0 mg/kg/injection, schedule: Q01DX001 (ip), vehicle: saline): 100 % of control

Structure (SMILES): COc1ccc(NC(=O)Nc2ccc(C)c(C)c2)cc1
- T/C [1]: 92 % of control
- T/C [4]: 97 % of control
- T/C [2]: 91 % of control
- T/C [5]: 103 % of control
- T/C [3]: 91 % of control
- T/C [6]: 95 % of control

Structure (SMILES): CC(=O)N(C)c1ccc(NC(=O)Nc2ccccc2F)cc1
- T/C [1]: 98 % of control
- T/C [2]: 95 % of control
- T/C [3]: 95 % of control

Structure (SMILES): COc1ccccc1OCCOCCN(C)C1CC2CCC1(C)C2(C)C (centres undefined)
- T/C [4]: 93 % of control

Structure (SMILES): NC(=S)N/N=C/C(=O)O
- T/C [7]: 91 % of control
- T/C [8]: 89 % of control
- T/C [9]: 89 % of control

Structure (SMILES): CCCCCNc1ccnc(=O)[nH]1
- T/C (dose: 50.0 mg/kg/injection, schedule: Q01DX001 (ip), vehicle: Klucel (hydroxypropylcellulose) (HPC)): 99 % of control
- T/C (dose: 100.0 mg/kg/injection, schedule: Q01DX001 (ip), vehicle: Klucel (hydroxypropylcellulose) (HPC)): 94 % of control
- T/C (dose: 200.0 mg/kg/injection, schedule: Q01DX001 (ip), vehicle: Klucel (hydroxypropylcellulose) (HPC)): 96 % of control

Structure (SMILES): Cc1nccnc1N
- T/C (dose: 25.0 mg/kg/injection, schedule: Q01DX009 (ip), vehicle: saline): 112 % of control
- T/C (dose: 50.0 mg/kg/injection, schedule: Q01DX009 (ip), vehicle: saline): 110 % of control
- T/C (dose: 100.0 mg/kg/injection, schedule: Q01DX009 (ip), vehicle: saline): 95 % of control and 108 % of control
- T/C (dose: 100.0 mg/kg/injection, schedule: Q04DX003 (ip), vehicle: saline): 98 % of control
- T/C (dose: 200.0 mg/kg/injection, schedule: Q04DX003 (ip), vehicle: saline): 109 % of control
- T/C (dose: 400.0 mg/kg/injection, schedule: Q04DX003 (ip), vehicle: saline): 102 % of control

Structure (SMILES): CCC[CH2][Sn]1([CH2]CCC)[O]OC(C)(CC)[O]1 (centres undefined)
- T/C (dose: 6.25 mg/kg/injection, schedule: Q01DX009 (ip), vehicle: saline sonified): 108 % of control

Structure (SMILES): C=CCOP(=O)(N1CC1C)N1CC1C (centres undefined)
- T/C (dose: 29.0 mg/kg/injection, schedule: Q01DX015 (ip), vehicle: saline): 105 % of control
- T/C (dose: 44.0 mg/kg/injection, schedule: Q01DX015 (ip), vehicle: saline): 120 % of control
- T/C (dose: 66.0 mg/kg/injection, schedule: Q01DX015 (ip), vehicle: saline): 114 % of control
- T/C (dose: 89.0 mg/kg/injection, schedule: Q01DX001 (ip), vehicle: saline): 108 % of control
- T/C [8]: 152 % of control
- T/C (dose: 300.0 mg/kg/injection, schedule: Q01DX001 (ip), vehicle: saline): 115 % of control
- T/C [9]: 86 % of control

Structure (SMILES): CCOC(=O)CCC1CCCC1CC(=O)OCC (centres undefined)
- T/C (dose: 100.0 mg/kg/injection, schedule: Q01DX001 (ip), vehicle: acetone): 97 % of control
- T/C (dose: 200.0 mg/kg/injection, schedule: Q01DX001 (ip), vehicle: acetone): 101 % of control
- T/C (dose: 400.0 mg/kg/injection, schedule: Q01DX001 (ip), vehicle: acetone): 86 % of control

Structure (SMILES): CCNC(=S)Nc1ccccc1
- T/C (dose: 37.5 mg/kg/injection, schedule: Q01DX009 (ip), vehicle: Klucel (hydroxypropylcellulose) (HPC)): 102 % of control
- T/C (dose: 75.0 mg/kg/injection, schedule: Q01DX009 (ip), vehicle: Klucel (hydroxypropylcellulose) (HPC)): 104 % of control
- T/C (dose: 150.0 mg/kg/injection, schedule: Q01DX009 (ip), vehicle: Klucel (hydroxypropylcellulose) (HPC)): 115 % of control

Structure (SMILES): O=C(O)CN1C(=O)CNC12CCCC2
- T/C [7]: 100 % of control
- T/C [8]: 108 % of control
- T/C [9]: 93 % of control
